Source: PubChem BioAssay (NCI)
Several values for one entry are separate records, joined by “and”; a condition that tells them apart may be missing. Equal entries are not always repeated.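 In this assay, cells in 96-well plates receive the compound at five concentrations for 48 hours. Endpoints are linearly interpolated between the surrounding concentrations. GI50 marks 50% less growth. TGI: total growth inhibition.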

Assays:
Experiment in all cases: inhibition of tumour cell growth, NCI panel, 48 h
A549 NSCLC = tested on: A549 NSCLC
SW-620 colon = tested on: SW-620 colon
RXF 393 renal = tested on: RXF 393 renal
K-562 leukemia = tested on: K-562 leukemia
KM12 colon = tested on: KM12 colon
SR leukemia = tested on: SR leukemia
MDA-MB-231 breast = tested on: MDA-MB-231 breast
IGROV1 ovarian = tested on: IGROV1 ovarian
RPMI-8226 leukemia = tested on: RPMI-8226 leukemia
UACC-62 melanoma = tested on: UACC-62 melanoma
SN12C renal = tested on: SN12C renal
NCI-H460 lung = tested on: NCI-H460 lung

Row | SMILES | TGI (A549 NSCLC) | TGI (SW-620 colon) [µM] | TGI (RXF 393 renal) [µM] | TGI (K-562 leukemia) | TGI (KM12 colon) | TGI (SR leukemia) | TGI (MDA-MB-231 breast) | TGI (IGROV1 ovarian) | TGI (RPMI-8226 leukemia) [µM] | TGI (UACC-62 melanoma) [µM] | TGI (SN12C renal) | TGI (NCI-H460 lung) | GI50 (K-562 leukemia) [µM] | GI50 (KM12 colon) [µM] | GI50 (SR leukemia) [µM] | GI50 (MDA-MB-231 breast) [µM] | GI50 (IGROV1 ovarian) [µM] | GI50 (SN12C renal) [µM] | GI50 (NCI-H460 lung) [µM]
1 | C=CC1(CC[C@]2(c3ccc(OC)c(OC)c3)C=[N+]([O-])O[C@H](O[C@@H]3CCCC[C@H]3C(C)(C)c3ccccc3)C2)OCC(C)(C)CO1 | > 54.8 µM | > 46.5 | > 48.4 | > 56.9 µM | 41.4 µM | > 38.9 µM | 33.9 µM | 23.7 µM | 26.5 | 33.9 | 22.8 µM | > 59.8 µM |  |  |  |  |  |  | 
2 | Oc1c(Br)ccc2cccnc12 | > 100 µM | > 45.6 | 32.4 | > 31.4 µM | > 100 µM | > 27.7 µM | 24.7 µM | 15.6 µM | > 27.9 | 7 | > 100 µM | 23.2 µM |  |  |  |  |  |  | 
3 | COc1cc2nc(-c3cccs3)nc(Cl)c2cc1OC | > 100 µM | > 100 |  | > 100 µM | > 100 µM | 34.8 µM | > 100 µM | > 100 µM |  | > 100 | > 100 µM | > 100 µM |  |  |  |  |  |  | 
4 | O=C1CC(=O)NC(=NN2C(=O)/C(=C/c3ccc(Cl)c(Cl)c3)N=C2c2ccccc2)N1 | > 100 µM | > 100 | 92.6 | 32.5 µM | 40.1 µM | 36.3 µM | 51.7 µM | > 100 µM | 47 | 32.6 | 34.8 µM | 74.9 µM |  |  |  |  |  |  | 
5 | COc1ccc2nc(-c3ccccc3)c(=O)[nH]c2c1 | > 100 µM | > 100 | > 100 | > 100 µM |  | > 100 µM | > 100 µM | > 100 µM | > 100 | > 100 | > 100 µM | > 100 µM |  |  |  |  |  |  | 
6 | CC(=O)c1ccc2c(c1)C(=O)c1sc(C(C)=O)cc1C2=O | 9.41 µM and 7.41 µM | 50 | 4.7 | 50 µM and > 100 µM | 2.34 µM and 1.48 µM | 50 µM and > 100 µM | 3.75 µM and 7.75 µM | 2.55 µM and 1.59 µM | 23.8 |  | 2.18 µM and 4.76 µM | 7.31 µM and 11 µM | 0.264 | 0.313 | 0.0247 | 0.521 | 0.43 | 0.953 | 0.362
7 | O=C1/C(=C\c2cccc(Oc3ccccc3)c2)S(=O)(=O)C(c2ccccc2)N1c1cccc(Cl)c1 (stereo unspecified) | > 100 µM | 69 | > 100 | > 100 µM | > 100 µM | > 100 µM | > 100 µM | > 100 µM | 78.8 | > 100 | > 100 µM | > 100 µM |  |  |  |  |  |  | 
8 | O=C1CCSCCC(=O)Nc2ccccc2N1 | > 100 µM | > 100 | > 100 | > 100 µM | > 100 µM | > 100 µM | > 100 µM | > 100 µM | > 100 | > 100 | > 100 µM | > 100 µM |  |  |  |  |  |  | 
9 | COc1cc2c(cc1O)NC(=O)[C@@H]1CCCN1C2=O | > 100 µM | > 100 | > 100 | > 100 µM | > 100 µM | > 100 µM | > 100 µM | > 100 µM | > 100 | > 100 | > 100 µM | > 100 µM |  |  |  |  |  |  | 
